Source: paper PMC6934184, “Selective DNA-PKcs inhibition extends the therapeutic index of localized radiotherapy and chemotherapy” (The Journal of Clinical Investigation, 2019)

Target: T1, RPS6KA4 (MSK2) (Homo sapiens, UniProt O75676)
T1 construct: purchased Thermo Fisher Scientific (Life Technologies) SelectScreen
Assay: SelectScreen Z'LYTE
Format: biochemical
Method in brief: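 SelectScreen broad panel; activity (Z'LYTE, Adapta) plus binding formats. ATP: Km app for CSF1R Z'LYTE; 10 for CAMK1 Adapta. Readout = % per kinase.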

T1 sequence (O75676 whole entry): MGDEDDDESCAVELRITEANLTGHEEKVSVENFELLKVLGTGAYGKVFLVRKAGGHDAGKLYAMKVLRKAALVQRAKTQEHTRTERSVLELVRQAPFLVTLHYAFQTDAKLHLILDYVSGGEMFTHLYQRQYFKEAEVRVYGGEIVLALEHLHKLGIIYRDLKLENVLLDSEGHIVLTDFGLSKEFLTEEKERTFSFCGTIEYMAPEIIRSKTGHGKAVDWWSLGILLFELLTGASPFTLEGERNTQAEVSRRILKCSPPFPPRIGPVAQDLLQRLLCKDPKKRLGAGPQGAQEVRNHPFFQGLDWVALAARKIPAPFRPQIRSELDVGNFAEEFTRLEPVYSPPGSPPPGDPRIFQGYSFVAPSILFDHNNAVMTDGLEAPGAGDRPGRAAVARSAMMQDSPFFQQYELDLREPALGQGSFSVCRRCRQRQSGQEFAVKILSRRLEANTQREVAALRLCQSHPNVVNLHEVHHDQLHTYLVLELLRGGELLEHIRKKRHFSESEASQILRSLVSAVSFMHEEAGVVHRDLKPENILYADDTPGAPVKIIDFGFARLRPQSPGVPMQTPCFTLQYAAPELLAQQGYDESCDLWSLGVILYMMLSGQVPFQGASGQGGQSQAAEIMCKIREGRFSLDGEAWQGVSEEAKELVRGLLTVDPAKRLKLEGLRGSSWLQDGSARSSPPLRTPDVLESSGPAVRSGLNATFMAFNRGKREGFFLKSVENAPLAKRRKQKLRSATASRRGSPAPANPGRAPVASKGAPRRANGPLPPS

CN(C(=O)CN1CCOCC1)c1ccc2sc3c(-c4cccc5c(=O)cc(N6CC7CCC(C6)O7)oc45)cccc3c2c1 [NU5455]
inhibition at 1 µM: 4.2%
